In ChEMBL document CHEMBL1146645, “Synthesis and structure-activity relationships of 3-substituted 1,4-dihydro-4-oxo-1-(2-thiazolyl)-1,8-naphthyridines as novel antitumor agents” (Bioorg Med Chem Lett, 2004) one finds MIC, T/C and IC50 data, which are given here for seven compounds.

One assay has as its system Escherichia coli. The assay is described as follows: In vitro antibacterial activity of compound towards Escherichia coli NIHJ JC-2. Type of assay: functional.
For assay [1], the system named is Mus musculus. The assay is described as follows: In vivo antitumor activity against murine P388 leukemia measured as median survival of treated mice to that of control (T/C) at a dose of […]. Type of assay: functional.
In assay [2] the test system is Mus musculus. The assay is described as follows: In vivo antitumor activity against murine P388 leukemia measured as median survival of treated mice to that of control (T/C) at a dose of 50 mg/kg. Type of assay: functional.
The test system of the next assay is P388. The assay is described as follows: In vitro cytotoxicity was measured towards murine lymphocytic leukemia P388 cells. Type of assay: functional, cell-based. Conditions: Mus musculus.
The subject of another assay is Staphylococcus aureus. The assay is described as follows: In vitro antibacterial activity towards Staphylococcus aureus 209 JC-1. The assay is classed as functional.
Another assay relates to A-427. The assay is described as follows: cells. The following applies: Homo sapiens. Type of assay: functional, cell-based.
The test system of another assay is AZ-521 cell line. The assay is described as follows: cells. Type of assay: functional, cell-based. The following applies: Homo sapiens.
For a further assay, the system named is C-33-A. Description: Cytotoxic activity against human C-33A cervix tumor cell line. Type of assay: functional, cell-based.
The next assay relates to HMV-2 cell line. The assay is described as follows: Cytotoxic activity against human HMV-2 melanoma tumor cell line. The assay is classed as functional, cell-based.
Another assay has as its system KB. Description: Cytotoxic activity against human KB nasopha tumor cell line. Type of assay: functional, cell-based.
Another assay relates to MKN-45. Description: Cytotoxic activity against human MKN45 stomach tumor cell line. Type of assay: functional, cell-based.
The next assay relates to WiDr. The assay is described as follows: Cytotoxic activity against human WiDr colon tumor cell line. The assay is classed as functional, cell-based.

≈ marks a conversion by molar mass, not a printed value. Bounds are passed on as bounds.

Description for A-427: Cytotoxic activity against human A-427 lung tumor cell line
Description for AZ-521 cell line: Cytotoxic activity against human AZ-521 stomach tumor cell line

Turning to `NC1CCN(c2nc3c(cc2F)c(=O)c(C(=O)O)cn3-c2nccs2)C1` (stereo not given), the values for the minimal inhibitory concentration (MIC) with Escherichia coli and in the assay on Staphylococcus aureus were 0.025 µg/mL (≈ 0.0666 µM) and 0.39 µg/mL (≈ 1.04 µM), respectively. The results for the T/C in the assay on Mus musculus [1], in the assay on Mus musculus [1] (dose […]) and in the assay on Mus musculus [2] were 150%, 213% and above 375%, respectively. In the assay with P388, the IC50 was 0.0211 µg/mL (≈ 0.0562 µM).
In the case of `NC(=O)c1cn(-c2nccs2)c2nc(N3CCC(N)C3)c(F)cc2c1=O` (stereo not given), the MIC against Escherichia coli and in the assay on Staphylococcus aureus was above 100 µg/mL in each case. For the same compound, in the assay with P388, half-maximal inhibition (IC50) required 0.269 µg/mL (≈ 0.718 µM).
As for `CCOC(=O)c1cn(-c2nccs2)c2nc(N3CCC(N)C3)c(F)cc2c1=O` (stereo not given), the results for the MIC against Escherichia coli and against Staphylococcus aureus were 12.5 µg/mL (≈ 31 µM) and 50 µg/mL (≈ 124 µM), respectively. Further, the concentration for half-maximal inhibition (IC50) with P388 amounted to 0.136 µg/mL (≈ 0.337 µM).
Turning to `CN[C@H]1CN(c2nc3c(cc2F)c(=O)c(C=O)cn3-c2nccs2)C[C@@H]1OC`, the half-maximal inhibitory concentration (IC50) amounted to 0.0749 µg/mL (≈ 0.186 µM) in the assay on A-427; 0.0307 µg/mL (≈ 0.0761 µM) with AZ-521 cell line; 0.161 µg/mL (≈ 0.399 µM) with C-33-A; 0.214 µg/mL (≈ 0.53 µM) with HMV-2 cell line; 0.179 µg/mL (≈ 0.444 µM) with KB; 0.144 µg/mL (≈ 0.357 µM) in the assay on MKN-45. Further, the IC50 was determined as 0.0309 µg/mL (≈ 0.0766 µM) in the assay with P388 and 0.264 µg/mL (≈ 0.654 µM) in the assay on WiDr. The figures for the MIC against Escherichia coli and against Staphylococcus aureus were 100 µg/mL (≈ 248 µM) and 12.5 µg/mL (≈ 31 µM), respectively. The T/C came to 188% in the assay with Mus musculus [1], 250% with Mus musculus [1] (dose […]) and 325% in the assay on Mus musculus [2].
Consider `NC1CCN(c2nc3c(cc2F)c(=O)c(Cc2ccccc2)cn3-c2nccs2)C1` (stereo not given), for which the MIC against Escherichia coli came to 100 µg/mL (≈ 237 µM); in the assay with Staphylococcus aureus, 50 µg/mL (≈ 119 µM). In the assay on P388, this compound showed an IC50 of 0.0178 µg/mL (≈ 0.0422 µM).
As to `COc1cc([C@@H]2c3cc4c(cc3[C@@H](O[C@@H]3O[C@@H]5CO[C@@H](C)O[C@H]5[C@H](O)[C@H]3O)[C@H]3COC(=O)[C@H]23)OCO4)cc(OC)c1O` [ETOPOSIDE], the half-maximal inhibitory concentration (IC50) in the assay on AZ-521 cell line came out at 0.08 µg/mL (≈ 0.136 µM); in the assay with C-33-A, 0.084 µg/mL (≈ 0.143 µM); in the assay on HMV-2 cell line it was 0.298 µg/mL (≈ 0.506 µM); in the assay on KB, 0.201 µg/mL (≈ 0.342 µM); in the assay with MKN-45, 0.49 µg/mL (≈ 0.833 µM); with WiDr, 1.63 µg/mL (≈ 2.77 µM). The T/C is on record as 175% with Mus musculus [1]; 250% with Mus musculus [1] (dose […] mg/kg, […]); above 375% in the assay on Mus musculus [2].
In the case of `NC1CCN(c2nc3c(cc2F)c(=O)c(O)cn3-c2nccs2)C1` (stereo not given), the MIC against Escherichia coli amounted to 0.78 µg/mL (≈ 2.25 µM); in the assay with Staphylococcus aureus, 50 µg/mL (≈ 144 µM). The 50% inhibitory concentration (IC50) with P388 amounted to 0.168 µg/mL (≈ 0.484 µM).

In general, MIC refers to the lowest concentration that inhibits growth of the organism. Usually T/C stands for the ratio of treated to control. The term IC50 denotes the midpoint of a concentration-inhibition curve.
